Measurements published in patent publication US6737383B1, “Herbicidal oxadiazolidines” (priority 1999, dated 2004).

How the values were obtained:
[1] = tested on: bedstraw; experiment: Test B pre/postemergence bedstraw; format: in vivo, Galium aparine
Source text: (§1) Seeds of bedstraw (Galium aparine), blackgrass (Alopecurus myosuroides), surinam grass (Brachiaria decumbens), cocklebur (Xanthium strumarium), corn (Zea mays), crabgrass (Digitaria sanguinalis), giant foxtail (Setaria faberii), morningglory (Ipomoea hederacea), pigweed (Amaranthus retroflexus), rape (Brassica napus), soybean (Glycine max), sugar beet (Beta vulgaris), velvetleaf (Abutilon theophrasti), wheat (Triticum aestivum), wild oat (Avena fatua) and purple nutsedge (Cyperus rotundus) tubers were planted and treated preemnergence with test chemicals formulated in a non-phytotoxic solvent mixture which included a surfactant.
(§2) At the same time, these crop and weed species were also treated with postemergence applications of test chemicals formulated in the same manner. Plants ranged in height from 2 to 18 cm (1- to 4-leaf stage) for postemergence treatments. Plant species in the flood test consisted of rice (Oryza sativa), smallflower flatsedge (Cyperus difformis), duck salad (Heteranthera limosa) and bamyardgrass (Echinochloa crus-galli) grown to the 2-leaf stage for testing. Treated plants and controls were maintained in a greenhouse for twelve to sixteen days, after which all species were compared to controls and visually evaluated. Plant response ratings, summarized in Table B, are based on a scale of 0 to 10 where 0 is no effect and 10 is complete control. A dash (−) response means no test result.

[2] = tested on: blackgrass; experiment: Test B pre/postemergence blackgrass; format: in vivo, Alopecurus myosuroides
Source text: as §1, §2

[3] = tested on: surinam grass; experiment: Test B pre/postemergence surinam grass; format: in vivo, Brachiaria decumbens
Source text: as §1, §2

[4] = tested on: cocklebur; experiment: Test B pre/postemergence cocklebur; format: in vivo, Xanthium strumarium
Source text: as §1, §2

[5] = tested on: corn; experiment: Test B pre/postemergence corn; format: in vivo, Zea mays
Source text: as §1, §2

[6] = tested on: crabgrass; experiment: Test B pre/postemergence crabgrass; format: in vivo, Digitaria sanguinalis
Source text: as §1, §2

[7] = tested on: giant foxtail; experiment: Test B pre/postemergence giant foxtail; format: in vivo, Setaria faberii
Source text: as §1, §2

[8] = tested on: morningglory; experiment: Test B pre/postemergence morningglory; format: in vivo, Ipomoea hederacea
Source text: as §1, §2

[9] = tested on: pigweed; experiment: Test B pre/postemergence pigweed; format: in vivo, Amaranthus retroflexus
Source text: as §1, §2

[10] = tested on: rape; experiment: Test B pre/postemergence rape; format: in vivo, Brassica napus
Source text: as §1, §2

[11] = tested on: soybean; experiment: Test B pre/postemergence soybean; format: in vivo, Glycine max
Source text: as §1, §2

[12] = tested on: sugar beet; experiment: Test B pre/postemergence sugar beet; format: in vivo, Beta vulgaris
Source text: as §1, §2

[13] = tested on: velvetleaf; experiment: Test B pre/postemergence velvetleaf; format: in vivo, Abutilon theophrasti
Source text: as §1, §2

[14] = tested on: wheat; experiment: Test B pre/postemergence wheat; format: in vivo, Triticum aestivum
Source text: as §1, §2

[15] = tested on: wild oat; experiment: Test B pre/postemergence wild oat; format: in vivo, Avena fatua
Source text: as §1, §2

[16] = tested on: purple nutsedge; experiment: Test B pre/postemergence purple nutsedge; format: in vivo, Cyperus rotundus; details: for Plant response rating, Nutsedge: scale of 0 to 10 where 0 is no effect and 10 is complete control
Source text: as §1, §2

[17] = Postemergence, Rate 62 g/ha, scale of 0 to 10, 0 is no effect, 10 is complete control
[18] = Postemergence, Rate 500 g/ha, scale of 0 to 10 where 0 is no effect and 10 is complete control
[19] = Preemergence, Rate 62 g/ha, scale 0 to 10 (0 no effect, 10 complete control)
[20] = Preemergence, Rate 125 g/ha, scale 0 to 10, 0 is no effect, 10 is complete control
[21] = Preemergence, Rate 500 g/ha, scale of 0 to 10 where 0 is no effect and 10 is complete control
[22] = Postemergence, Rate 125 g/ha, scale 0 to 10, 0 is no effect, 10 is complete control
[23] = Rate 250 g/ha, Postemergence, scale of 0 to 10 where 0 is no effect and 10 is complete control
[24] = Preemergence, Rate 62 g/ha, scale of 0 to 10 where 0 is no effect and 10 is complete control
[25] = Preemergence, Rate 250 g/ha, scale 0 to 10 (0 no effect, 10 complete control)

## COCCOCn1c(=O)on(C(=O)N(c2ccccc2)C(C)C)c1=O [Compound 564]
[1]; [17]
  Bedstraw plant response rating: 0
[1]; [18]
  Plant response rating, Bedstraw: 0
[1]; [19]
  Bedstraw plant response rating: 0
[1]; [20]
  Bedstraw plant response rating: 0
[1]; Preemergence, Rate 250 g/ha
  Bedstraw plant response rating (0 to 10 scale): 0
[1]; [21]
  Bedstraw plant response rating: 0
[2]; [17]
  Blackgrass plant response rating: 0
[2]; [22]
  Blackgrass plant response rating: 4
[2]; [18]
  Plant response rating, Blackgrass: 4
[2]; [19]
  Blackgrass plant response rating: 0
[2]; [20]
  Blackgrass plant response rating: 5
[2]; Preemergence, Rate 250 g/ha
  Blackgrass plant response rating (0 to 10 scale): 5
[2]; [21]
  Blackgrass plant response rating: 9
[2]; [23]
  Plant response rating, Blackgrass: 4
[3]; [17]
  B. signalgrass plant response rating: 0
[3]; [18]
  Plant response rating, B. signalgrass: 8
[3]; [19]
  B. signalgrass plant response rating: 2
[3]; [20]
  B. signalgrass plant response rating: 6
[3]; Preemergence, Rate 250 g/ha
  B. signalgrass plant response rating (0 to 10 scale, 0 is no effect, 10 is complete control): 6
[3]; [21]
  B. signalgrass plant response rating: 7
[3]; [23]
  Plant response rating, B. signalgrass: 3
[4]; [17]
  Cocklebur plant response rating: 0
[4]; [22]
  Cocklebur plant response rating: 0
[4]; [18]
  Plant response rating, Cocklebur: 2
[4]; [19]
  Cocklebur plant response rating: 0
[4]; [20]
  Cocklebur plant response rating: 0
[4]; Preemergence, Rate 250 g/ha
  Cocklebur plant response rating (0 to 10 scale): 0
[4]; [21]
  Cocklebur plant response rating: 0
[4]; [23]
  Plant response rating, Cocklebur: 0
[5]; [17]
  Corn plant response rating: 0
[5]; [22]
  Corn plant response rating: 0
[5]; [18]
  Plant response rating, Corn: 6
[5]; [19]
  Corn plant response rating: 2
[5]; [20]
  Corn plant response rating: 4
[5]; Preemergence, Rate 250 g/ha
  Corn plant response rating (0 to 10 scale): 4
[5]; [21]
  Corn plant response rating: 9
[5]; [23]
  Plant response rating, Corn: 0
[6]; [17]
  Crabgrass plant response rating: 2
[6]; [22]
  Crabgrass plant response rating: 3
[6]; [18]
  Plant response rating, Crabgrass: 9
[6]; [19]
  Crabgrass plant response rating: 7
[6]; [20]
  Crabgrass plant response rating: 8
[6]; Preemergence, Rate 250 g/ha
  Crabgrass plant response rating (0 to 10 scale): 9
[6]; [21]
  Crabgrass plant response rating: 9
[6]; [23]
  Plant response rating, Crabgrass: 8
[7]; [17]
  Giant foxtail plant response rating: 2
[7]; [22]
  Giant foxtail plant response rating: 3
[7]; [18]
  Plant response rating, Giant foxtail: 9
[7]; [19]
  Giant foxtail plant response rating: 9
[7]; [20]
  Giant foxtail plant response rating: 9
[7]; Preemergence, Rate 250 g/ha
  Giant foxtail plant response rating (0 to 10 scale): 9
[7]; [21]
  Giant foxtail plant response rating: 9
[7]; [23]
  Plant response rating, Giant foxtail: 7
[8]; [17]
  Morningglory plant response rating: 5
[8]; [22]
  Morningglory plant response rating: 7
[8]; [18]
  Plant response rating, Morningglory: 10
[8]; [19]
  Morningglory plant response rating: 0
[8]; [20]
  Morningglory plant response rating: 2
[8]; Preemergence, Rate 250 g/ha
  Morningglory plant response rating (0 to 10 scale): 2
[8]; [21]
  Morningglory plant response rating: 4
[8]; [23]
  Plant response rating, Morningglory: 10
[9]; [17]
  Redroot pigweed plant response rating: 3
[9]; [18]
  Plant response rating, Redroot pigweed: 3
[9]; [19]
  Redroot pigweed plant response rating: 0
[9]; [20]
  Redroot pigweed plant response rating: 0
[9]; Preemergence, Rate 250 g/ha
  Redroot pigweed plant response rating (0 to 10 scale): 3
[9]; [21]
  Redroot pigweed plant response rating: 3
[9]; [23]
  Plant response rating, Redroot pigweed: 3
[10]; [17]
  Rape plant response rating: 0
[10]; [22]
  Rape plant response rating: 0
[10]; [18]
  Plant response rating, Rape: 2
[10]; [19]
  Rape plant response rating: 0
[10]; [20]
  Rape plant response rating: 0
[10]; Preemergence, Rate 250 g/ha
  Rape plant response rating (0 to 10 scale): 0
[10]; [21]
  Rape plant response rating: 3
[10]; [23]
  Plant response rating, Rape: 2
[11]; [17]
  Soybean plant response rating: 0
[11]; [18]
  Plant response rating, Soybean: 5
[11]; [19]
  Soybean plant response rating: 0
[11]; [20]
  Soybean plant response rating: 0
[11]; Preemergence, Rate 250 g/ha
  Soybean plant response rating (0 to 10 scale): 4
[11]; [21]
  Soybean plant response rating: 8
[11]; [23]
  Plant response rating, Soybean: 5
[12]; [17]
  Sugarbeets plant response rating: 0
[12]; [18]
  Plant response rating, Sugarbeets: 2
[12]; [19]
  Sugarbeets plant response rating: 2
[12]; [20]
  Sugarbeets plant response rating: 2
[12]; Preemergence, Rate 250 g/ha
  Sugarbeets plant response rating (0 to 10 scale): 3
[12]; [21]
  Sugarbeets plant response rating: 3
[12]; [23]
  Plant response rating, Sugarbeets: 2
[13]; [17]
  Velvetleaf plant response rating: 0
[13]; [18]
  Plant response rating, Velvetleaf: 3
[13]; [19]
  Velvetleaf plant response rating: 0
[13]; [20]
  Velvetleaf plant response rating: 2
[13]; Preemergence, Rate 250 g/ha
  Velvetleaf plant response rating (0 to 10 scale): 6
[13]; [21]
  Velvetleaf plant response rating: 8
[13]; [23]
  Plant response rating, Velvetleaf: 2
[14]; [17]
  Wheat plant response rating: 0
[14]; [18]
  Plant response rating, Wheat: 2
[14]; [19]
  Wheat plant response rating: 0
[14]; [20]
  Wheat plant response rating: 6
[14]; Preemergence, Rate 250 g/ha
  Wheat plant response rating (0 to 10 scale): 7
[14]; [21]
  Wheat plant response rating: 7
[15]; [17]
  Wild oats plant response rating: 0
[15]; [18]
  Plant response rating, Wild oats: 2
[15]; [19]
  Wild oats plant response rating: 0
[15]; [20]
  Wild oats plant response rating: 0
[15]; Preemergence, Rate 250 g/ha
  Wild oats plant response rating (0 to 10 scale): 4
[15]; [21]
  Wild oats plant response rating: 7
[16]; [17]
  Nutsedge plant response rating: 0
[16]; Postemergence, Rate 500 g/ha
  Plant response rating, Nutsedge: 0
[16]; [19]
  Nutsedge plant response rating: 0
[16]; [20]
  Nutsedge plant response rating: 0
[16]; Rate 250 g/ha, Postemergence
  Plant response rating, Nutsedge: 0

## CC(C)N(C(=O)n1oc(=O)n(C(C)C2CC2)c1=O)c1ccc(Cl)cc1 (stereo not shown) [Compound 700]
[1]; [24]
  Bedstraw plant response rating: 0
[1]; [25]
  Plant response rating, Bedstraw: 0
[1]; [21]
  Plant response rating, Bedstraw: 8
[2]; [24]
  Blackgrass plant response rating: 4
[2]; [25]
  Plant response rating, Blackgrass: 8
[2]; [21]
  Plant response rating, Blackgrass: 10
[3]; [24]
  B. signalgrass plant response rating: 4
[3]; [25]
  Plant response rating, B. signalgrass: 8
[3]; [21]
  Plant response rating, B. signalgrass: 10
[4]; [24]
  Cocklebur plant response rating: 0
[4]; [25]
  Plant response rating, Cocklebur: 0
[4]; [21]
  Plant response rating, Cocklebur: 0
[5]; [24]
  Corn plant response rating: 0
[5]; [25]
  Plant response rating, Corn: 3
[6]; [24]
  Crabgrass plant response rating: 10
[6]; [25]
  Plant response rating, Crabgrass: 10
[7]; [24]
  Giant foxtail plant response rating: 10
[8]; [24]
  Morningglory plant response rating: 0
[9]; [24]
  Redroot pigweed plant response rating: 0
[10]; [24]
  Rape plant response rating: 0
[11]; [24]
  Soybean plant response rating: 0
[12]; [24]
  Sugarbeets plant response rating: 0
[13]; [24]
  Velvetleaf plant response rating: 0
[14]; [24]
  Wheat plant response rating: 0
[15]; [24]
  Wild oats plant response rating: 4
